Test results from patent publication EP0705258B1, “AZOLYL-CYCLIC AMINE DERIVATIVES WITH IMMUNOMODULATORY ACTIVITY” (Knoll AG, priority 1993, dated 1995).

Tests used:
[1] = tested on: lymphocyte proliferation (BALB/c responder and mitomycin C treated C57BL/6 stimulator spleen cells); assay: Mixed Lymphocyte Reaction (Test A), one-way MLR, tritiated thymidine incorporation; format: cell-based, mice; conditions: Mus musculus; concentration causing 50% inhibition of lymphocyte proliferation, by linear interpolation; ≤ = active at this concentration but not tested at lower doses
Description: A mixed lymphocyte reaction (MLR) occurs when lymphocytes from two genetically dissimilar individuals, or inbred strains of mice are cultured together. An MLR results in the activation and proliferation of lymphocytes, which is measured by the incorporation of radiolabelled thymidine into the cellular DNA synthesised during cell division. A 'one-way' MLR is used to determine the immunosuppressive activity of test compounds in vitro. In this reaction one population of spleen cells serves as the stimulator cells and is treated with mitomycin C to prevent cell division. Spleen cells from a second allogeneic population (responder cells) are untreated and when mixed with the stimulator cells are able to undergo division which is measured. The degree of proliferation is measured in the presence and absence of test compound to assess the immunosuppressive activity of the compound.
The techniques for carrying out lymphocyte proliferation assays including MLRs are well known, eg Bradley, pages 156-166, in Mishell and Shiigi, Eds. Selected Methods in Cellular Immunology (Freeman, San Francisco, 1980); and Battisto et al, methods in Enzymology 1987; 150: 83-91. Various slight modifications of these techniques are in use and that used herein is described in Gibb, Webber and Bowen, J Immunological Methods 1985; 81: 107-113.
Cell suspensions obtained from the spleens of female BALB/c and C57BL/6 strain mice of between 6 and 9 weeks of age were used as sources of responder and stimulator cells respectively. The mice were killed using a rising concentration of CO2 and the spleens removed aseptically and teased using a scalpel and forceps to produce a single cell suspension in Hanks balanced salt solution (HBSS). The suspensions were filtered through cell strainers (Falcon), sedimented by centrifugation and resuspended in Tris-buffered ammonium chloride pH 7.2 (medium D) to lyse the erythrocytes. The cells were sedimented again and washed twice in HBSS before resuspending in complete RPMI 1640 tissue culture medium (medium E). The C57BL/6 cells were resuspended to 9 mls per spleen and a solution of mitomycin C at 400 µg/ml in medium E added to give a final concentration of 40 µg/ml. After incubation of the C57BL/6 cells at 37°C for 30 minutes in an atmosphere of 5% CO2 and 95% air, the cells were sedimented and washed 3 times in medium E. Both cell suspensions were diluted in medium E to 5 x 10^6 cells/ml. 100µl of each of the responder and stimulator cell suspensions were aliquoted into the wells of 96 well flat bottom microtitre plates containing 50 µl of test compound at an appropriate dilution (initially 50 µM diluted in medium E from a stock solution at 100 mM in dimethyl sulphoxide) giving a final test compound concentration of 10 µM (final dilution). Compounds active at this concentration were tested at further final dilution of 1 µM, 0.1 µM and 0.01 µM and 0.001 µM to determine the concentration of test compound which causes 50% inhibition of the immune response (IC50). After four days of culture at 37°C in a humidified atmosphere of 5% CO2 and 95% air, 1 µCi of tritiated thymidine in 20 µl of medium E was added to each well and the plates incubated for a further 24 hours. Cells were then harvested onto Inotech G7 glass fibre filter mats using an Inotech cell harvester. The filters were transferred to vials to which 2 ml of Packard Emulsifier-Safe scintillation fluid was added and the radioactivity from the incorporated thymidine was counted in a Packard liquid scintillation counter. The counts per minute (CPM) reflect the degree of lymphocyte proliferation. The data were analysed to determine the percentage inhibition of lymphocyte proliferation by the test compound. […]

[2] = tested on: tumour necrosis factor-α (TNF-α); assay: Mouse Tumour Necrosis Factor Test (Test B), mouse endotoxin shock model, serum TNF-α by ELISA; format: in vivo, BALB/c mice; conditions: Mus musculus; minimum effective oral dose giving significant reduction in serum TNF-α of ≥35%; dosed 2 h before LPS i.p.; ≤ = active at dose given but not tested at lower doses; read-out: MTNF:MED
Excerpt: Preferred compounds of the present invention are active in an in-vivo test which determines the ability of the compounds to inhibit the release of tumour necrosis factor-α (TNF-α) in a mouse endotoxin shock model (Test B). This model is similar to that described by Zuckerman and Bendele (1989), Infection and Immunity 57 (10): p3009-3013.
Each compound of formula I was combined with a carrier of a solution of 1.5% v/v sorbitan esters under the trade name Tween 80 and 0.25% v/v cellosize in sterile water (100 µl) and was administered orally to a group of four BALB/c mice. The concentration of compound was such as to provide dosages selected from 100, 30, 10, 3, 1, 0.1 and 0.03 mg/kg. Two hours after such oral administration, lipopolysaccharide (LPS) (E. coli 0127:B8) (100 µg) in sterile water (0.2 ml) was administered intraperitoneally to the test mice.
A control group of eight BALB/c mice was treated in a similar manner as the test group except that no test compound was included with the carrier.
One hour after LPS administration the mice were killed and blood was collected by cardiac puncture. The blood was incubated at 20°C for 2 hours and the serum was separated from the clotted blood following centrifugation. Serum tumour necrosis factor-α (TNF-α) levels were assayed by an enzyme-linked immunosorbent assay (ELISA) and the concentration of TNF-α in each of the drug-treated groups was compared with the control group by one-way analysis of variance followed by a multiple t-test.
The ELISA was carried out by coating a 96-well vinyl assay plate (Costar) overnight at 4°C with 50 µl per well of 2 µg/ml hamster anti-mouse TNF monoclonal antibody in 0.1M sodium hydrogen carbonate buffer at pH 8.2. After washing the plate with phosphate buffered saline (PBS) containing 0.05% v/v sorbitan esters under the trade name Tween 20 (wash buffer), a blocking/dilution buffer (10% sheep serum in PBS containing 0.1% v/v sorbitan esters under the trade name Tween 20 (200 µl)) was aliquoted to each well and incubated at 37°C for 0.5 hours. After aspirating the blocking buffer, the serum samples and pure TNF (as a standard) diluted in blocking/dilution buffer, were added to the wells and incubated at 37°C for 2 hours. After washing with the wash buffer, a polyclonal rabbit anti-mouse TNF-α antibody in blocking/dilution buffer (100 µl of a 1 in 10,000 dilution) was added and incubated for a further 1.5 hours at 37°C. After further washes, anti-rabbit IgG peroxidase conjugate (100 µl of a 1 in 4000 dilution) was added and incubated at 37°C for 0.5 hours. After further washing, the substrate solution (100 µl per well of 0.1 mg/ml 3,3', 5,5'-tetramethylbenzidine dihydrochloride in 0.1M phosphate citrate buffer, pH 5.0, to which 2 µl of 30% hydrogen peroxide per 10 ml was added just before use) was added and the colour allowed to develop. The reaction was stopped by the addition of 1M sulphuric acid (25 µl) and the optical density read in a multichannel spectrophotometer at 450 nm. The mean TNF-α concentration was determined by comparison with the standard curve and the mean TNF-α concentration for each group compared with that produced by the control group. Drug treatments which cause a statistically significant reduction in TNF-α concentration of ≥35% at a single dose at 100 mg/kg or less were considered active.

Structure (SMILES)	IC50 [1]	minimal effective dose [2]
c1ccc(OCCN2CCC(CCn3ccnc3)CC2)cc1 [Example 87, 4-[2-(Imidazol-1-yl)ethyl]-1-(2-phenoxyethyl)piperidine]	8 µM	≤ 100 mg/kg
C(=Cc1ccccc1)CN1CCC(CCn2ccnc2)CC1 [Example 90, 1-Cinnamyl-4-[2-(imidazol-1-yl)ethyl]-piperidine]	2.2 µM	≤ 30 mg/kg
O=C(CN1CCC(CCn2ccnc2)CC1)Nc1ccc(C(F)(F)F)cc1 [Example 91, 4-[2-(Imidazol-1-yl)ethyl]piperidino-4'-trifluoromethylacetanilide]	0.1 µM	30 mg/kg
CC(c1ccc(Cl)cc1)N1CCC(CCn2ccnc2)CC1 (centres unmarked) [Example 93, 1-[1-(4-chlorophenyl)ethyl]-4-[2-(imidazol-1-yl)-ethyl]piperidine]	1.1 µM	30 mg/kg
Cl.Cl.c1ccc(CCCN2CCC(CCn3ccnc3)CC2)cc1 [Example 98, 4-[2-(imidazol-1-yl)ethyl]-1-(3-phenylpropyl)piperidine dihydrochloride]	0.3 µM	30 mg/kg
c1ccc(CCCN2CCC(Cn3ccnc3)CC2)cc1 [Example 102, 4-Imidazol-1-ylmethyl-1-(3-phenylpropyl)piperidine]	5.2 µM	≤ 100 mg/kg
CC1CN(CCCc2ccccc2)CCC1CCn1ccnc1 (centres unmarked) [Example 103, 4-[2-(Imidazol-1-yl)ethyl]-3-methyl-1-(3-phenylpropyl)piperidine]	1.9 µM	≤ 30 mg/kg
c1ccc(CCCN2CCC(CCn3ccnc3-c3ccccc3)CC2)cc1 [Example 109, 4-[2-(2-Phenylimidazol-1-yl)ethyl]-1-(3-phenylpropyl)piperidine]	3.6 µM	100 mg/kg
Cc1nc2ccccc2n1CCC1CCN(CCCc2ccccc2)CC1 [Example 112, 2-Methyl-1-{2-[1-(3-phenylpropyl)piperidin-4-yl]ethyl}benzimidazole]	3 µM	100 mg/kg
CC(Cn1ccnc1)C1CCN(CCCc2ccccc2)CC1 (centres unmarked) [Example 113, 4-[2-(Imidazol-1-yl)-1-methylethyl]-1-(3-phenylpropyl)piperidine]	0.3 µM	10 mg/kg
c1ccc(CCCN2CCC(CCn3cnc4ccccc43)CC2)cc1 [Example 114, 1-{2-[1-(3-Phenylpropyl)piperidin-4-yl]-ethyl}benzimidazole]	4.2 µM	30 mg/kg
Cc1nc(Cl)c(Cl)n1CCC1CCN(CCCc2ccccc2)CC1 [Example 115, 4-[2-(4,5-Dichloro-2-methylimidazol-1-yl)ethyl]-1-(3-phenylpropyl)piperidine]	1.2 µM	100 mg/kg
Cc1ncn(CCC2CCN(CCCc3ccccc3)CC2)c1C [Example 116, 4-[2-(4,5-Dimethylimidazol-1-yl)ethyl]-1-(3-phenylpropyl)piperidine]	2 µM	30 mg/kg
Cc1nccn1CCC1CCN(CCCc2ccccc2)CC1 [Example 117, 4-[2-(2-Methylimidazol-1-yl)ethyl]-1-(3-phenylpropyl)piperidine]	0.2 µM	100 mg/kg
Cc1ccc(CCCN2CCC(CCn3ccnc3)CC2)cc1 [Example 122, 4-[2-(Imidazol-1-yl)ethyl]-1-[3-(4-methylphenyl)propyl]piperidine]	2.8 µM	≤ 30 mg/kg
Clc1ccc(CCCN2CCC(CCn3ccnc3)CC2)cc1 [Example 123, 1-[3-(4-Chlorophenyl)propyl]-4-[2-(imidazol-1-yl)ethyl]piperidine]	0.7 µM	≤ 30 mg/kg
CSc1ccc(CCCN2CCC(CCn3ccnc3)CC2)cc1 [Example 127, 4-[2-(Imidazol-1-yl)ethyl]-1-[3-(4-methylthiophenyl)propyl]piperidine]	1.9 µM	30 mg/kg
c1ccc(CCN2CCC(CCn3ccnc3)CC2)cc1 [Example 128, 4-[2-(Imidazol-1-yl)ethyl]-1-phenethylpiperidine]	2 µM	≤ 30 mg/kg
c1ccc(CCCCN2CCC(CCn3ccnc3)CC2)cc1 [Example 129, 4-[2-(Imidazol-1-yl)ethyl]-1-(4-phenylbutyl)piperidine]	2.1 µM	30 mg/kg
